Measurements as given in patent publication US20170022201A1, “MACROCYLIC PYRIDINE DERIVATIVES” (Janssen Pharmaceutica NV, priority 2014, published 2017).

Assays:
EF2K = target: T1, EF2K (Homo sapiens, UniProt O00418); assay: Biochemical EF2K lysate-based kinase assay (AlphaLISA p-eEF2 Thr56); settings: LN-229 cell lysates, 10 mM ATP, pH 6.6; pIC50 = -log IC50 (M); read-out: eEF2K_C_alphalisa pIC50 (converted)
T1 construct: host or cells: LN-229 glioblastoma cell lysate
T1 sequence (O00418 1-725): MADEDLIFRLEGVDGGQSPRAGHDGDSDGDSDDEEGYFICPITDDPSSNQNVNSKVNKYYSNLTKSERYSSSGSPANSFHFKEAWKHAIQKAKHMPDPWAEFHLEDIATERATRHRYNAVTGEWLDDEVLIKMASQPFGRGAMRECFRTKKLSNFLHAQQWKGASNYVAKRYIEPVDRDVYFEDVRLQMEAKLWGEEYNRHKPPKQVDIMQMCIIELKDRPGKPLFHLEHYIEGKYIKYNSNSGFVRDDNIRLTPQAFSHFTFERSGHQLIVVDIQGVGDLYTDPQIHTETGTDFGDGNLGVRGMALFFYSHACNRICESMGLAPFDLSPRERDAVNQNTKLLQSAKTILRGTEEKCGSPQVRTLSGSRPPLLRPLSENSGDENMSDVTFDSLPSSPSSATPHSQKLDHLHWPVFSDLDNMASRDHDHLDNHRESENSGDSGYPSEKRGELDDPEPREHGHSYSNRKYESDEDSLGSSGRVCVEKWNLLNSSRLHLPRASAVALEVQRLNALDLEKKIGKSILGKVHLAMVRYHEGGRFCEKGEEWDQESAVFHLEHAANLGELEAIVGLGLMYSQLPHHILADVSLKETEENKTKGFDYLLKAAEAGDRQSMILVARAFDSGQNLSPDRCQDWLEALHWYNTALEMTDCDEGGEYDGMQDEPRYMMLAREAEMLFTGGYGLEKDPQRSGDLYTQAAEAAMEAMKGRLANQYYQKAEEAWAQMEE
Text: LN-229 cells were purchased from ATCC (CRL-2611); these are glioblastoma cells. Cell lysates from LN229 were used in this kinase assay to provide both the kinase and the substrate (EF2). The AlphaLISA p-eEF2 (Thr56) detection assay was developed using a sandwich assay format with two specific antibodies recognizing different epitopes of the target, including one antibody against the phosphorylation site of interest. One anti-eEF2 antibody was conjugated onto AlphaLISA Acceptor beads, while the second antibody was biotinylated and captured by streptavidin coated Donor beads.
Compound was mixed with LN-229 cell lysates in the presence of a kinase buffer (e.g. HEPES) at a pH of 6.6, containing 10 mM Mg^2+ (e.g. magnesium acetate) and 10 mM adenosine-tri-phosphate (ATP) and incubated at room temperature for 15 minutes. The kinase reaction was stopped with excess ethylenediaminetetraacetic acid disodium salt and the biotinylated-anti phospho eEF2 antibody (3 nM) was added for 1 hour. Then the anti-EF2 acceptor beads (10 μg/ml) as well as the streptavidin coated donor beads (20 μg/ml) were added for 1 hour, and the AlphaLISA signal was measured in an Envision instrument once, left overnight, and measured again for the final read.

eEF2K = target: T2, eEF2K (Homo sapiens, UniProt O00418); assay: EF2K cell-based assay (P-EF2 AlphaLISA, 2-deoxyglucose stimulated MCF10A cells); settings: 2.5 mM 2-deoxyglucose 4 h, phosphorylation of EF2 at Thr 56, pIC50 = -log IC50 (M), read-out: eEF2K_C_PThr56 pIC50 (converted)
T2 construct: in the immortalized epithelial breast cell lines, MCF10A; host or cells: MCF10A immortalized breast epithelial cells
T2 sequence (O00418 1-725): T1 sequence (O00418 1-725)
Method: In this assay, 2.5 mM 2-deoxyglucose was used to deplete intracellular ATP and activate 5′ adenosine monophosphate-activated protein kinase (AMPK) in the immortalized epithelial breast cell lines, MCF10A. MCF 10A cells were purchased from ATCC (CRL-10317).
MCF10A cells are seeded at a density of 1.25×10^5 Cells/ml at 100 μl/well in a 96-well plate and incubated for 24 hours (37° C., 5% CO2). Compound is added for 1 hour, and cell are stimulated with 2.5 mM of 2-deoxy-glucose for 4 hours. Medium is then removed, and cells are lysed in an ice-cold buffer M-PER (Thermo Scientific, 78501), containing protease and phosphatase inhibitors. P-EF2 levels are determined in these lysates using the P-EF2 AlphaLISA described above.

Row | IC50 (EF2K) [M] | IC50 (eEF2K) [M] | Compound
1 | 1.41e-05 | > 3.02e-05 | CN1CCCNc2ccc(cn2)-c2ccnc(c2)Nc2cccc(c2)CN2CCN(CC2)CC1=O [Compound 69]
2 | ~1.05e-08 | 3.63e-07 | CC1c2cccc(c2)Nc2cc(ccn2)-c2cnc(nc2)NCCCNC(=O)C2(CC2)N2CCN1CC2 (single isomer, unassigned) [Compound 22]
3 | 2.75e-09 | 2.88e-07 | CC1c2cccc(c2F)Nc2cc(ccn2)-c2cnc(nc2)NCCCNC(=O)C2(CC2)N2CCN1CC2 (single isomer, unassigned) [Compound 11]
4 | ~4.47e-09 | 3.24e-07 | O=C1NCCCNc2ncc(cn2)-c2ccnc(c2)Nc2cccc(c2F)OC2CCN(CC2)C12CC2 [Compound 89]
5 | 1.35e-08 | 7.24e-07 | O=C1CN2CCC(CC2)Oc2cccc(c2F)Nc2cc(ccn2)-c2cnc(nc2)NCCCN1 [Compound 91]
6 | 2.75e-08 | 1.1e-06 | NC1CC2CCNC(=O)C3(CC3)N3CCN(CC3)Cc3cccc(c3)Nc3cc(ccn3)-c3cnc(nc3)N2C1 (centres unmarked) [Compound 85]
7 | 7.59e-06 | > 1e-05 | O=C1CN2CCN(CC2)Cc2cccc(c2)Nc2cc(ccn2)-c2cnc(nc2)C2CCCN2CCN1 (single isomer, unassigned) [Compound 139]
8 | 8.13e-08 | 1.32e-06 | CN1c2cccc(c2)Nc2cc(ccn2)-c2cnc(nc2)NCCCNC(=O)C2(CC2)N2CCC1CC2 [Compound 102]
9 | 1.45e-07 | > 1e-05 | CC1c2cccc(c2F)Nc2cc(ccn2)-c2cnc(nc2)NCCCNC(=O)C2(CC2)N2CCN1CC2 (single isomer, unassigned) [Compound 12]
10 | 4.9e-09 | 3.09e-07 | O=C1CN2CCN(CC2)Cc2cccc(c2)Nc2cc(ccn2)-c2cnc(nc2)N2CC=CC2CCN1 (centres unmarked) [Compound 81]
11 | 1e-08 | 6.31e-07 | O=C1CN2CCN(CC2)Cc2cccc(c2)Nc2cc(ccn2)-c2cnc(nc2)N2CC(F)CC2CCN1 (centres unmarked) [Compound 80]
12 | 1.26e-07 | 1.17e-06 | O=C1CN2CC(C2)Oc2cccc(c2)Nc2cc(ccn2)-c2cnc(nc2)NCCCN1 [Compound 92]
13 | 3.98e-07 | 1.05e-06 | CCCN1CCNC(=O)CN2CCN(CC2)Cc2cccc(c2)Nc2cc(ccn2)-c2ccc(nc2)C1 [Compound 147]
14 | 9.77e-08 | 1.15e-06 | N#CC1CC2CCNC(=O)C3(CC3)N3CCN(CC3)Cc3cccc(c3)Nc3cc(ccn3)-c3cnc(nc3)N2C1 (centres unmarked) [Compound 79]
15 | 7.94e-08 | 6.31e-07 | O=C1CN2CCC(C2)Oc2cccc(c2)Nc2cc(ccn2)-c2cnc(nc2)NCCCN1 (centres unmarked) [Compound 93]
16 |  | ~1e-05 | O=C1CN2CCN(CC2)Cc2cc(ccn2)Nc2cc(ccn2)-c2cnc(nc2)N2CC(O)CC2CCN1 (centres unmarked) [Compound 51]
17 | 1.02e-08 | 3.55e-07 | O=C1CN2CCN(CC2)Cc2cc(ccc2F)Nc2cc(ccn2)-c2cnc(nc2)N2CC(O)CC2CCN1 (centres unmarked) [Compound 50]
18 | 2.51e-05 | > 1e-05 | O=C1CN2CCN(CC2)Cc2cccc(c2)Nc2cc(ccn2)-c2cnc(nc2)N2CCC2CCN1 (centres unmarked) [Compound 49]
19 | 3.55e-07 | > 1e-05 | CC(=O)NCCCCC1C(=O)NCCCNc2ncc(cn2)-c2ccnc(c2)Nc2cccc(c2)CN2CCN1CC2 (centres unmarked) [Compound 109]
20 | 5.13e-09 | 3.89e-07 | O=C1NCCC2CC(O)CN2c2ncc(cn2)-c2ccnc(c2)Nc2cccc(c2)CN2CCN(CC2)C12COC2 (centres unmarked) [Compound 64]
21 |  | 7.94e-07 | CN1c2cccc(c2F)Nc2cc(ccn2)-c2cnc(nc2)N2CC(O)CC2CCNC(=O)C2(CC2)N2CCC1CC2 (centres unmarked) [Compound 105]

Row | IC50 (EF2K) [M] | IC50 (eEF2K) [M] | Compound
22 |  | ~3.63e-06 | O=C1CN2CCN(CC2)Cc2cccc(c2)Nc2cc(ccn2)-c2ccc(nc2)N2CCCC2CCN1 (centres unmarked) [Compound 141]
23 | 1.82e-09 | 3.31e-07 | O=C1NCCC2CC(O)CN2c2ncc(cn2)-c2ccnc(c2)Nc2cccc(c2)OC2CCN(CC2)C12CC2 (centres unmarked) [Compound 97]
24 | 1.12e-05 | > 1e-05 | CC1NCCNC(=O)CN2CCN(CC2)Cc2cccc(c2)Nc2cc(ccn2)-c2cnc1nc2 (centres unmarked) [Compound 134]
25 | 5.37e-09 | 7.59e-08 | CC1c2cccc(c2F)Nc2cc(ccn2)-c2cnc(nc2)N2CC(O)CC2CCNC(=O)C2(CC2)N2CCN1CC2 (centres unmarked) [Compound 52]
26 | ~1.58e-06 |  | O=C1CN2CCN(CC2)Cc2cccc(c2)Nc2cc(ccn2)-c2cnc(nc2)C2CCCN2CCN1 (single isomer, unassigned) [Compound 138]
27 | 5.75e-06 | > 1e-05 | O=C1CN2CCN(CC2)Cc2cccc(c2)Nc2cc(ccn2)-c2cnc(nc2)NC(CC2CC2)CCN1 (centres unmarked) [Compound 125]
28 | 6.76e-09 | ~6.46e-07 | O=C1NCCCNc2ncc(cn2)-c2ccnc(c2)Nc2cccc(c2)OC2CCN(CC2)C12CC2 [Compound 95]
29 | ~5.5e-06 | > 1e-05 | O=C1CN2CCN(CC2)Cc2cccc(c2)Nc2cc(ccn2)-c2ccc(nc2)CNCCN1 [Compound 145]
30 |  | 5.5e-06 | NCCCCC1C(=O)NCCCNc2ncc(cn2)-c2ccnc(c2)Nc2cccc(c2)CN2CCN1CC2 (centres unmarked) [Compound 113]
31 | 2.69e-05 | > 1e-05 | COCCN1CCNC(=O)CN2CCN(CC2)Cc2cccc(c2)Nc2cc(ccn2)-c2cnc(nc2)C1 [Compound 129]
32 | 3.98e-09 | 8.13e-08 | O=C1NCCC2CC(O)CN2c2ncc(cn2)-c2ccnc(c2)Nc2cccc(c2F)OC2CCN(CC2)C12CC2 (centres unmarked) [Compound 96]
33 | 6.31e-06 | > 1e-05 | CC(=O)NCCCOCC1CN2CCN1Cc1cccc(c1)Nc1cc(ccn1)-c1cnc(nc1)NCCCNC(=O)C2 (centres unmarked) [Compound 149]
34 | > 3.02e-05 | ~1e-05 | CC1NCCNC(=O)CN2CCN(CC2)Cc2cccc(c2)Nc2cc(ccn2)-c2cnc1nc2 (centres unmarked) [Compound 133]
35 | 1.51e-07 | 4.37e-07 | CC(=O)NCCCOCC1CN2CCN1Cc1cccc(c1)Nc1cc(ccn1)-c1cnc(nc1)NCCCNC(=O)C2 (centres unmarked) [Compound 115]
36 | 3.09e-08 | 1.07e-06 | O=C1CN2CCC(CC2)Oc2cccc(c2)Nc2cc(ccn2)-c2cnc(nc2)N2CC(O)CC2CCN1 (centres unmarked) [Compound 99]
37 | 3.98e-09 | 1.66e-07 | O=C1NCCCNc2ncc(cn2)-c2ccnc(c2)Nc2cccc(c2F)CN2CCN(CC2)C12CC2 [Compound 20]
38 | 1.91e-07 | 1.62e-06 | CN1c2cccc(c2F)Nc2cc(ccn2)-c2cnc(nc2)NCCCNC(=O)C2(CC2)N2CCC1CC2 [Compound 103]
39 | 1.95e-08 | 1.74e-06 | O=C1NCCC2CC(O)CN2c2ncc(cn2)-c2ccnc(c2)Nc2cccc(c2)CN2CCN(CC2)C12COC2 (centres unmarked) [Compound 63]
40 | 6.61e-08 | 6.76e-07 | O=C1CN2CCCC(CC2)Oc2cccc(c2)Nc2cc(ccn2)-c2cnc(nc2)NCCCN1 (centres unmarked) [Compound 94]
41 | 1.86e-08 | 7.08e-07 | [N-]=[N+]=N[C@@H]1C[C@H]2CCNC(=O)CN3CCN(CC3)Cc3cccc(c3)Nc3cc(ccn3)-c3cnc(nc3)N2C1 [Compound 82]
